From patent publication US12570642B2, “GLP-IR modulating compounds” (Gilead Sciences, Inc., priority 2021, dated 2026)

target: GLP-1R (Homo sapiens, UniProt P43220); assay: GLP-1R Activation - cAMP Assay; assay type: cell-based; conditions: cAMP increase in CHO cells stably expressing GLP-1R; each compound run on one of the two cAMP assays (Assay 1 or Assay 2, not specified)
Outline: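 CHO cells stably expressing GLP-1R, plated at 1,000 cells/well overnight, then equilibrated 1 h in HBSS with 20 mM Hepes and 0.1% BSA. Agonist added as 10-point dose response for 30 min at 37 °C. cAMP measured by HTRF (Cisbio Gs Dynamic kit); EC50 from sigmoidal fit.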

Chain of GLP-1R (P43220 24-463): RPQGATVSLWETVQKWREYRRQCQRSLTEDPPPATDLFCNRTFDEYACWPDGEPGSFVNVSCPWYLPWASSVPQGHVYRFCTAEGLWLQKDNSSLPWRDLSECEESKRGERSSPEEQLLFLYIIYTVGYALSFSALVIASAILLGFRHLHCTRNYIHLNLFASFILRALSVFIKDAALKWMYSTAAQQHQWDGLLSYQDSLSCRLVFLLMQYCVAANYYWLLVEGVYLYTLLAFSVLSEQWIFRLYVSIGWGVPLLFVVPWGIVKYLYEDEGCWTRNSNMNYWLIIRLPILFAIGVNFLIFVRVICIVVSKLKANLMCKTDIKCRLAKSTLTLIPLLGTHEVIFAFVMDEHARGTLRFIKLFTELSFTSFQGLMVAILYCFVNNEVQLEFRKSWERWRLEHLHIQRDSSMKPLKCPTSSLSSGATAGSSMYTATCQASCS

| Structure (SMILES) | EC50 |
| --- | --- |
| COCCn1c(Cc2cc(F)c(-c3cccc(OCc4ccc(-c5cccnc5C)cc4F)n3)cc2F)nc2ccc(C(=O)O)cc21 [Example 104, 2-(2,5-difluoro-4-(6-((2-fluoro-4-(2-methylpyridin-3-yl)benzyl)oxy)pyridin-2-yl)benzyl)-1-(2-methoxyethyl)-1H-benzo[d]imidazole-6-carboxylic Acid] | 41300 pM |
| COCCn1c(Cc2cc(F)c(-c3cccc(OCc4ccc(-c5ccc(C)nc5)cc4F)n3)cc2F)nc2ccc(C(=O)O)cc21 [Example 105, 2-(2,5-difluoro-4-(6-((2-fluoro-4-(6-methylpyridin-3-yl)benzyl)oxy)pyridin-2-yl)benzyl)-1-(2-methoxyethyl)-1H-benzo[d]imidazole-6-carboxylic Acid] | 1550 pM |
| COCCn1cc(-c2ccc(COc3cccc(-c4cc(F)c(Cc5nc6ccc(C(=O)O)cc6n5CCOC)cc4F)n3)c(F)c2)cn1 [Example 106, 2-(2,5-difluoro-4-(6-((2-fluoro-4-(1-(2-methoxyethyl)-1H-pyrazol-4-yl)benzyl)oxy)pyridin-2-yl)benzyl)-1-(2-methoxyethyl)-1H-benzo[d]imidazole-6-carboxylic Acid] | 2220 pM |
| COCCn1c(Cc2cc(F)c(-c3cccc(OCc4ccc(-c5cn(C)nn5)nc4)n3)cc2F)nc2ccc(C(=O)O)cc21 [Example 107, 2-(2,5-difluoro-4-(6-((6-(1-methyl-1H-1,2,3-triazol-4-yl)pyridin-3-yl)methoxy)pyridin-2-yl)benzyl)-1-(2-methoxyethyl)-1H-benzo[d]imidazole-6-carboxylic Acid] | 1400 pM |
| COCCn1c(Cc2cc(F)c(-c3cccc(OCc4ccc(-c5cnn(C)c5)nc4)n3)cc2F)nc2ccc(C(=O)O)cc21 [Example 108, 2-(2,5-difluoro-4-(6-((6-(1-methyl-1H-pyrazol-4-yl)pyridin-3-yl)methoxy)pyridin-2-yl)benzyl)-1-(2-methoxyethyl)-1H-benzo[d]imidazole-6-carboxylic Acid] | 3280 pM |
| COCCn1c(Cc2cc(F)c(-c3cccc(OCc4ccc(-c5cnn(C(F)F)c5)nc4)n3)cc2F)nc2ccc(C(=O)O)cc21 [Example 109, 2-(4-(6-((6-(1-(difluoromethyl)-1H-pyrazol-4-yl)pyridin-3-yl)methoxy)pyridin-2-yl)-2,5-difluorobenzyl)-1-(2-methoxyethyl)-1H-benzo[d]imidazole-6-carboxylic Acid] | 2510 pM |
| COCCn1c(Cc2cc(F)c(-c3cccc(OCc4ccc(-c5ccnn5C)nc4)n3)cc2F)nc2ccc(C(=O)O)cc21 [Example 110, 2-(2,5-difluoro-4-(6-((6-(1-methyl-1H-pyrazol-5-yl)pyridin-3-yl)methoxy)pyridin-2-yl)benzyl)-1-(2-methoxyethyl)-1H-benzo[d]imidazole-6-carboxylic Acid] | 4930 pM |
| C#Cc1ccc(COc2cccc(-c3cc(F)c(Cc4nc5ccc(C(=O)O)cc5n4CCOC)cc3F)n2)c(F)c1 [Example 111] | 1460 pM |
| COCCn1c(Cc2cc(F)c(-c3cccc(OCc4ccc(-c5ncnn5C)cc4F)n3)cc2F)nc2ccc(C(=O)O)cc21 [Example 112] | 23000 pM |
| COCCn1c(Cc2cc(F)c(-c3cccc(OCc4ccc(-c5cncn5C)cc4F)n3)cc2F)nc2ccc(C(=O)O)cc21 [Example 113] | 11000 pM |
| COCCn1c(Cc2cc(F)c(-c3cccc(OCc4ccc(-c5cnn(CC(F)F)c5)cc4F)n3)cc2F)nc2ccc(C(=O)O)cc21 [Example 114] | 5990 pM |
| CC1(C)COC[C@H]1n1c(Cc2cc(F)c(-c3ccc(F)c(OCc4ccc(C#N)cc4F)n3)cc2F)nc2c(F)cc(C(=O)O)cc21 [Example 116, 2-[[4-[6-[(4-cyano-2-fluoro-phenyl)methoxy]-5-fluoro-2-pyridyl]-2,5-difluoro-phenyl]methyl]-3-[(3S)-4,4-dimethyltetrahydrofuran-3-yl]-7-fluorobenzimidazole-5-carboxylic Acid] | 5 pM |
| CC1(C)COC[C@H]1n1c(Cc2cc(F)c(-c3cccc(OCc4cnc(-n5ccnn5)cc4Cl)n3)cc2F)nc2ccc(C(=O)O)cc21 [Example 118, (S)-2-(4-(6-((4-chloro-6-(1H-1,2,3-triazol-1-yl)pyridin-3-yl)methoxy)pyridin-2-yl)-2,5-difluorobenzyl)-1-(4,4-dimethyltetrahydrofuran-3-yl)-1H-benzo[d]imidazole-6-carboxylic Acid] | 53 pM |
| CC1(C)COC[C@H]1n1c(Cc2c(F)cc(-c3cccc(OCc4ccc(C#N)cc4F)n3)c(F)c2F)nc2ccc(C(=O)O)cc21 [Example 120, (S)-2-(4-(6-((4-cyano-2-fluorobenzyl)oxy)pyridin-2-yl)-2,3,6-trifluorobenzyl)-1-(4,4-dimethyltetrahydrofuran-3-yl)-benzimidazole-6-carboxylic Acid] | 101 pM |
| CC1(C)COC[C@H]1n1c(Cc2cc(F)c(-c3ccnc(OCc4ccc(Cl)cc4F)n3)cc2F)nc2ccc(C(=O)O)cc21 [Example 121, (S)-2-(4-(2-((4-chloro-2-fluorobenzyl)oxy)pyrimidin-4-yl)-2,5-difluorobenzyl)-1-(4,4-dimethyltetrahydrofuran-3-yl)-1H-benzo[d]imidazole-6-carboxylic Acid] | 83 pM |
| CC1(C)COCC1n1c(Cc2c(F)cc(-c3cccc(OCc4ccc(C#N)cc4F)n3)c(F)c2F)nc2c(F)cc(C(=O)O)cc21 (stereo not shown) [Example 122, 2-(4-(6-((4-cyano-2-fluorobenzyl)oxy)pyridin-2-yl)-2,3,6-trifluorobenzyl)-1-(4,4-dimethyltetrahydrofuran-3-yl)-4-fluoro-1H-benzo[d]imidazole-6-carboxylic Acid] | 31 pM |
| CC1(C)COC[C@@H]1n1c(Cc2c(F)cc(-c3cccc(OCc4ccc(C#N)cc4F)n3)c(F)c2F)nc2c(F)cc(C(=O)O)cc21 [Example 123] | 528 pM |
| CC1(C)COC[C@H]1n1c(Cc2c(F)cc(-c3cccc(OCc4ccc(C#N)cc4F)n3)c(F)c2F)nc2c(F)cc(C(=O)O)cc21 [Example 124] | 27 pM |
| COCCn1c(Cc2cc(F)c(-c3ccc(F)c(OCc4ccc(C#N)cc4F)n3)cc2F)nc2ccc(C(=O)O)c(F)c21 [Example 125, 2-(4-(6-((4-cyano-2-fluorobenzyl)oxy)-5-fluoropyridin-2-yl)-2,5-difluorobenzyl)-7-fluoro-1-(2-methoxyethyl)-1H-benzo[d]imidazole-6-carboxylic Acid] | 112 pM |
| CC1(C)COC[C@H]1n1c(Cc2cc(F)c(-c3cccc(OCc4ccc(Cl)cc4F)n3)cc2F)nc2c(Cl)cc(C(=O)O)cc21 [Example 126, (S)-4-chloro-2-(4-(6-((4-chloro-2-fluorobenzyl)oxy)pyridin-2-yl)-2,5-difluorobenzyl)-1-(4,4-dimethyltetrahydrofuran-3-yl)-1H-benzo[d]imidazole-6-carboxylic Acid] | 332 pM |
| CC1(C)COC[C@H]1n1c(Cc2cc(F)c(-c3ccc(F)c(OCc4ccc(C#N)cc4F)n3)cc2F)nc2c(Cl)cc(C(=O)O)cc21 [Example 127, (S)-4-chloro-2-(4-(6-((4-cyano-2-fluorobenzyl)oxy)-5-fluoropyridin-2-yl)-2,5-difluorobenzyl)-1-(4,4-dimethyltetrahydrofuran-3-yl)-1H-benzo[d]imidazole-6-carboxylic Acid] | 353 pM |
| CC1(C)COC[C@H]1n1c(Cc2cc(F)c(-c3ccnc(OCc4ccc(C#N)cc4F)n3)cc2F)nc2c(Cl)cc(C(=O)O)cc21 [Example 129, (S)-4-chloro-2-(4-(2-((4-cyano-2-fluorobenzyl)oxy)pyrimidin-4-yl)-2,5-difluorobenzyl)-1-(4,4-dimethyltetrahydrofuran-3-yl)-1H-benzo[d]imidazole-6-carboxylic Acid] | 271 pM |
| CC1(C)COC[C@H]1n1c(Cc2cc(F)c(-c3cccc(OCc4ccc(C#N)cc4F)n3)cc2F)nc2c(Cl)cc(C(=O)O)cc21 [Example 130, (S)-4-chloro-2-(4-(6-((4-cyano-2-fluorobenzyl)oxy)pyridin-2-yl)-2,5-difluorobenzyl)-1-(4,4-dimethyltetrahydrofuran-3-yl)-1H-benzo[d]imidazole-6-carboxylic Acid] | 38 pM |
| CC1(C)COC[C@H]1n1c(Cn2cc(F)c(-c3ccc(F)c(OCc4ccc(Cl)cc4F)n3)cc2=O)nc2c(F)cc(C(=O)O)cc21 [Example 131, (S)-2-((6-((4-chloro-2-fluorobenzyl)oxy)-5,5′-difluoro-2′-oxo-[2,4′-bipyridin]-1′(2′H)-yl)methyl)-1-(4,4-dimethyltetrahydrofuran-3-yl)-4-fluoro-1H-benzo[d]imidazole-6-carboxylic Acid] | 145 pM |
| CC1(C)COC[C@H]1n1c(Cn2cc(F)c(-c3ccc(F)c(OCc4ccc(C#N)cc4F)n3)cc2=O)nc2c(F)cc(C(=O)O)cc21 [Example 132, (S)-2-((6-((4-cyano-2-fluorobenzyl)oxy)-5,5′-difluoro-2′-oxo-[2,4′-bipyridin]-1′(2′H)-yl)methyl)-1-(4,4-dimethyltetrahydrofuran-3-yl)-4-fluoro-1H-benzo[d]imidazole-6-carboxylic Acid] | 43 pM |
| Cc1cc(Cc2nc3c(F)cc(C(=O)O)cc3n2[C@@H]2COCC2(C)C)c(Cl)cc1-c1cccc(OCc2ccc(C#N)cc2)n1 [Example 133, (S)-2-(2-chloro-4-(6-((4-cyanobenzyl)oxy)pyridin-2-yl)-5-methylbenzyl)-1-(4,4-dimethyltetrahydrofuran-3-yl)-4-fluoro-1H-benzo[d]imidazole-6-carboxylic Acid] | 21 pM |
| Cc1cc(Cc2nc3ccc(C(=O)O)cc3n2[C@@H]2COCC2(C)C)c(Cl)cc1-c1cccc(OCc2ccc(C#N)cc2)n1 [Example 134, (S)-2-(2-chloro-4-(6-((4-cyanobenzyl)oxy)pyridin-2-yl)-5-methylbenzyl)-1-(4,4-dimethyltetrahydrofuran-3-yl)-1H-benzo[d]imidazole-6-carboxylic Acid] | 77 pM |
| Cc1cc(Cc2nc3ccc(C(=O)O)cc3n2[C@@H]2COCC2(C)C)c(Cl)cc1-c1ccc(F)c(OCc2ccc(C#N)cc2)n1 [Example 135, (S)-2-(2-chloro-4-(6-((4-cyanobenzyl)oxy)-5-fluoropyridin-2-yl)-5-methylbenzyl)-1-(4,4-dimethyltetrahydrofuran-3-yl)-1H-benzo[d]imidazole-6-carboxylic Acid] | 361 pM |
